Laboratory results taken from patent US7718681B2, “5-(1,3-Diaryl-1H-pyrazol-4-ylmethylene)-thiazolidine,2,4-dione derivatives useful as anticancer agent” (Korea Research Institute of Chemical Technology, priority 2005, dated 2010).

Target: T1, CDC25B (Homo sapiens, UniProt P30305)
T1 construct: Catalytic domain of CDC25B (aa 378-566) was expressed and produced in E. coli into a GST fusion protein; GST; made in house; host or cells: E. coli
T1 sequence (P30305 378-566 isoform P30305-2): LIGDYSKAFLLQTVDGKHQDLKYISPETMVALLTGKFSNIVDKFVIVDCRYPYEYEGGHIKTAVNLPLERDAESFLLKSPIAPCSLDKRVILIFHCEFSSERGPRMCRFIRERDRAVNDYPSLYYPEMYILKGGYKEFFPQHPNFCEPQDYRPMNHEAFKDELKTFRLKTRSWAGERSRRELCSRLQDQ
Assay: CDC25B enzyme assay
Format: biochemical
Conditions: catalytic domain of CDC25B (aa 378-566) GST fusion, 20 μm FDP, 1 hour at room temperature, fluorescence
Procedure: Catalytic domain of CDC25B (aa 378-566) was expressed and produced in E. coli into a GST fusion protein, which was used as zymogen. Enzyme assay was carried out on a 96-well plate, with the final reaction volume per well adjusted to 200 μL. 170 μL of a buffer solution (30 mM Tris buffer, pH 8.5, 75 mM NaCl, 0.67 mM EDTA, 1 mM DTT), 20 μL (0.2 μg) of CDC25B enzyme and 10 μL of the test compound dissolved in DMSO were added, so that the final concentration became 1 μg/mL CDC25B and 20 μm FDP. Measurement was made after culturing at room temperature for 1 hour. FDP and DTT were added to the buffer solution just before assay, so that a fresh status could be maintained. After 1 hour of culturing, fluorescence resultant from the enzymatic reaction was measured at 485 nm (excitation) and 538 nm (emission).
The screened compound was treated to a final concentration of 1, 2, 5 and 10 μm to obtain the % inhibition value. If the inhibitory effect was low (less than 50% at […]), the concentration of the compound was increased to 20 μm and the % inhibition value and the IC50 value were obtained.

O=C1NC(=O)C(=Cc2cn(-c3ccccc3)nc2-c2cc(F)cc(F)c2)S1 [Compound 58, 5-[3-(3,5-difluoro-phenyl)-1-phenyl-1H-pyrazol-4-ylmethylene]-thiazolidine-2,4-dione]
IC50: 5.79 µM

CCN1C(=O)S/C(=C\c2cn(-c3ccccc3)nc2-c2cc(Br)c(OCC3CC3)c(Br)c2)C1=O [Compound 173]
IC50: 2.35 µM

COc1c(Br)cc(-c2nn(-c3ccccc3)cc2/C=C2\SC(=O)NC2=O)cc1Br [Compound 145]
IC50: 1.84 µM

CCOc1c(Cl)cccc1-c1nn(-c2ccccc2)cc1/C=C1\SC(=O)N(CC)C1=O [Compound 69]
IC50: 7.2 µM

O=C1NC(=O)C(=Cc2cn(-c3ccccc3)nc2-c2cccc(Br)c2)S1 [Compound 3]
IC50: 9.45 µM

CCN1C(=O)S/C(=C\c2cn(-c3ccccc3)nc2-c2ccccc2Br)C1=O [Compound 5]
IC50: 8.96 µM

C=CCN1C(=O)S/C(=C\c2cn(-c3ccccc3)nc2-c2cc(Br)c(OC(F)F)c(Br)c2)C1=O [Compound 182]
IC50: 13.6 µM

CCOc1ccc(-c2nn(-c3ccccc3)cc2C=C2SC(=O)NC2=O)cc1Br [Compound 77, 5-[3-(3-bromo-4-ethoxy-phenyl)-1-phenyl-1H-pyrazol-4-ylmethylene]-thiazolidine-2,4-dione]
IC50: 5.65 µM

CCOc1c(Br)cc(-c2nn(-c3ccccc3)cc2/C=C2\SC(=O)N(CC)C2=O)cc1Br [Compound 153]
IC50: 1.36 µM

CCN1C(=O)SC(=Cc2cn(-c3ccccc3)nc2-c2ccccc2Cl)C1=O [Compound 2]
IC50: 11.4 µM

COc1c(Cl)cccc1-c1nn(-c2ccccc2)cc1/C=C1\SC(=O)NC1=O [Compound 66]
IC50: 10.6 µM

C=CCOc1c(Br)cc(-c2nn(-c3ccccc3)cc2/C=C2\SC(=O)NC2=O)cc1Br [Compound 164]
IC50: 0.17 µM

CCCOc1ccc(-c2nn(-c3ccccc3)cc2/C=C2\SC(=O)NC2=O)cc1C(C)(C)C [Compound 142]
IC50: 1.48 µM

C=CCOc1ccc(-c2nn(-c3ccccc3)cc2/C=C2\SC(=O)N(CC=C)C2=O)cc1I [Compound 132]
IC50: 3.6 µM

C=CCOc1ccc(-c2nn(-c3ccccc3)cc2/C=C2\SC(=O)NC2=O)cc1Br [Compound 88]
IC50: 2.21 µM

O=C1NC(=O)/C(=C/c2cn(-c3ccccc3)nc2-c2cc(Br)c(OC(F)F)c(Br)c2)S1 [Compound 178]
IC50: 0.71 µM

CCCOc1c(C(C)C)cc(-c2nn(-c3ccccc3)cc2/C=C2\SC(=O)NC2=O)cc1C(C)C [Compound 190]
IC50: 1.09 µM

CC(C)(C)c1cc(-c2nn(-c3ccccc3)cc2/C=C2\SC(=O)NC2=O)cc(C(C)(C)C)c1O [Compound 192]
IC50: 3.99 µM

CCCOc1c(Br)cc(-c2nn(-c3ccccc3)cc2/C=C2\SC(=O)NC2=O)cc1Br [Compound 163]
IC50: 1.5 µM

CCCOc1ccc(-c2nn(-c3ccccc3)cc2/C=C2\SC(=O)NC2=O)cc1I [Compound 122]
IC50: 0.36 µM

CCOc1ccc(-c2nn(-c3ccccc3)cc2C=C2SC(=O)NC2=O)cc1I [Compound 121]
IC50: 2.6 µM

O=C1NC(=O)/C(=C/c2cn(-c3ccccc3)nc2-c2ccc(OC(F)F)c(OCC3CC3)c2)S1 [Compound 52]
IC50: 2.83 µM

O=C1NC(=O)/C(=C/c2cn(-c3ccccc3)nc2-c2cc(OC3CCCC3)cc(OC3CCCC3)c2)S1 [Compound 41]
IC50: 0.54 µM

CCCOc1ccc(-c2nn(-c3ccccc3)cc2/C=C2\SC(=O)NC2=O)cc1Br [Compound 82]
IC50: 2.81 µM

CCOc1c(Cl)cccc1-c1nn(-c2ccccc2)cc1/C=C1\SC(=O)NC1=O [Compound 67]
IC50: 3.41 µM

CC(C)Oc1cc(OC(C)C)cc(-c2nn(-c3ccccc3)cc2/C=C2\SC(=O)NC2=O)c1 [Compound 30]
IC50: 5.74 µM

CCOc1ccc(-c2nn(-c3ccccc3)cc2C=C2SC(=O)NC2=O)cc1I [Compound 115]
IC50: 0.57 µM

CCCOc1cc(OCCC)cc(-c2nn(-c3ccccc3)cc2/C=C2\SC(=O)NC2=O)c1 [Compound 25]
IC50: 1.86 µM

CCOc1ccc(-c2nn(-c3ccccc3)cc2/C=C2\SC(=O)N(CC)C2=O)cc1I [Compound 117]
IC50: 0.59 µM
